For orientation: IC50 means the midpoint of a concentration-inhibition curve. The term half-life denotes the time needed for the level to fall by half in the phase considered. What is called Ki is the dissociation constant of the complex between target and ligand, obtained from inhibition or displacement.

Each structure is given as a SMILES string. Active and inactive are the calls of the source. Bounds are passed on as bounds.

This note sets out measurements from ChEMBL document CHEMBL3351354, “From the covalent linkage of drugs to novel inhibitors of ribonucleotide reductase: synthesis and biological evaluation of valproic esters of 3'-C-methyladenosine” (Bioorg Med Chem Lett, 2014).

For series [1], the system named is HL-60. In words: Induction of apoptosis in human HL60 cells after 24 to 48 hrs by acridine orange and ethidium bromide staining based fluorescence microscopy. As to conditions: hl-60. In kind it is functional, cell-based.
The target of series [2] is T1, Ribonucleotide reductase (Homo sapiens) (UniProt P23921+Q7LG56). Kind of series: Inhibition of human recombinant ribonucleotide reductase at 1.2 mM. The format is protein-complex assay.
A further series deals with HT-29. Kind of series: Growth inhibition of human HT-29 cells after 48 hrs by MTT assay. In kind it is functional, cell-based. As to conditions: Homo sapiens, HT-29, 48 h; read-out: IC50. For orientation: Tetrazolium assays rely on reduction of a dye to a coloured formazan, in cell work by metabolically active cells.
In a further series the test system is MCF7. Kind of series: Growth inhibition of human MCF7 cells after 48 hrs by MTT assay. The format is functional, cell-based. As to conditions: Homo sapiens, MCF7, 48 h; read-out: IC50.
Series [3] in a line: Growth inhibition of human Caco2 cells after 48 hrs by MTT assay. In kind it is functional, cell-based, Caco-2. The settings on record: Homo sapiens, Caco-2, 48 h; read-out: IC50.
A short description of series [4]: Half life in pH 7.4 isotonic sodium phosphate buffer at 37 degC by HPLC-DAD-ESI-MS method. In kind it is physicochemical.
The subject of series [5] is HL-60. In words: Induction of cell cycle arrest in human HL60 cells assessed as accumulation at G1 phase at 1 mM after 24 hrs by propidium iodide staining based flow cytometry (reference value: 32%). The format is functional. (In general: A flow cytometer gives signals particle by particle.)
The nature of series [6]: Growth inhibition of human HL60 cells after 48 hrs by MTT assay. As to conditions: Homo sapiens, HL-60, 48 h; read-out: IC50. In kind it is functional, cell-based, HL-60.
The subject of another series is K562. In words: Growth inhibition of human K562 cells after 48 hrs by MTT assay. The format is functional, cell-based. The settings on record: Homo sapiens, K562, 48 h; read-out: IC50.
Series [7] concerns HL-60. In words: Induction of cell cycle arrest in human HL60 cells assessed as accumulation at S phase at 1 mM after 24 hrs by propidium iodide staining based flow cytometry (reference value: 54%). The format is functional.
The test system of series [8] is HL-60. In words: Induction of cell cycle arrest in human HL60 cells assessed as accumulation at G2M phase at 1 mM after 24 hrs by propidium iodide staining based flow cytometry (reference value: 12%). In kind it is functional.
Series [9] has as its target T1, Ribonucleotide reductase (Homo sapiens). In words: Inhibition of ribonucleotide reductase in human HL60 cells assessed as intracellular dNTP pools level at 1.2 mM after 1 hr by HPLC method. The format is cell-based. As to conditions: HL-60.
In a further series the test system is HuT78. Kind of series: Growth inhibition of human HUT78 cells after 48 hrs by MTT assay. In kind it is functional, cell-based. As to conditions: Homo sapiens, HuT78, 48 h; read-out: IC50.
Series [10] in a line: Half life in RPMI-1640 medium containing 10% fetal calf serum assessed as compound disappearance by HPLC-DAD-ESI-MS method. In kind it is ADME, Bos taurus. The settings on record: cattle.
A further series concerns HeLa. In words: Growth inhibition of human HeLa cells after 48 hrs by MTT assay. The format is functional, cell-based. As to conditions: Homo sapiens, HeLa, 48 h; read-out: IC50.
Series [11] has as its system HL-60. Kind of series: Induction of cell cycle arrest in human HL60 cells assessed as accumulation at G1 phase at 100 uM after 24 hrs by propidium iodide staining based flow cytometry (reference value: 32%). The format is functional.
The target in the next series is T2, Ribonucleotide reductase (Homo sapiens, UniProt P23921+Q7LG56).
T2 sequence (P23921 whole entry): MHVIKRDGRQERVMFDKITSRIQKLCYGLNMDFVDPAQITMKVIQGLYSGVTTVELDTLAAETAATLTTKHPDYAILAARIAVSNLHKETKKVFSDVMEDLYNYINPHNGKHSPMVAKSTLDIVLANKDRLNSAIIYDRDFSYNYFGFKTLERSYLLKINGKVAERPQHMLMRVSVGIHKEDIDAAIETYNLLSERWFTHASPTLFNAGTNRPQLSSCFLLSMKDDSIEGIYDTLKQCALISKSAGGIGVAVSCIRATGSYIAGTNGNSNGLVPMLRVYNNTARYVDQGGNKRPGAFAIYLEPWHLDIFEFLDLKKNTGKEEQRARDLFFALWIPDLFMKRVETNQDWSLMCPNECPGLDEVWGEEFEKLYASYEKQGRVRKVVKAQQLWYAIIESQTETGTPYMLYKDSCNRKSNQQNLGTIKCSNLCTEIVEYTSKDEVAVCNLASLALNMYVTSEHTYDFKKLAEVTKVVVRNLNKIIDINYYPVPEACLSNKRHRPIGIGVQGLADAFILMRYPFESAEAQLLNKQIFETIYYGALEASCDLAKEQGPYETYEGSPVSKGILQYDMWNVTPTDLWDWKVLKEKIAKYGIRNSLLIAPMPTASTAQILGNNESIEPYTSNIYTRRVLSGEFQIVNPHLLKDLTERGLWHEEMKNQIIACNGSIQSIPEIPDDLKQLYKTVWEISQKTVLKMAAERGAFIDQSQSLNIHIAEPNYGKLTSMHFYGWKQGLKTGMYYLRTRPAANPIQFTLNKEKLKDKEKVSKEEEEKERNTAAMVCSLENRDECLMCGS
T2 sequence (Q7LG56 whole entry): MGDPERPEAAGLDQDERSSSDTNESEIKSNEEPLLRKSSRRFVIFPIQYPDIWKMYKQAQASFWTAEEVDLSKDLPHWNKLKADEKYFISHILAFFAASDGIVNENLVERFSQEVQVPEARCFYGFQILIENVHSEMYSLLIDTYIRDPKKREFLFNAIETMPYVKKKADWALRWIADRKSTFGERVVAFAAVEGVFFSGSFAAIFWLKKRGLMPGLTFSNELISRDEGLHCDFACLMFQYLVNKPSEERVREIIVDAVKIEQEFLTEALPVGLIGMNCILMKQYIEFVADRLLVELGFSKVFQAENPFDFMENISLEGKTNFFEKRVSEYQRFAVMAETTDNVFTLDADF
In words: Competitive inhibition of human recombinant ribonucleotide reductase in presence of varying levels of ATP by Dixon plot. In kind it is protein-complex assay.

Series [12] deals with T1, Ribonucleotide reductase (Homo sapiens). In words: Inhibition of human recombinant ribonucleotide reductase at 1.2 mM in presence of 3 mM ATP. In kind it is protein-complex assay.
Series [13] has as its target Histone deacetylase (Homo sapiens) (UniProt Q13547+O15379+Q9UBN7+Q92769+Q9UQL6+Q8WUI4+Q9BY41+Q96DB2+P56524+Q9UKV0+Q969S8). Kind of series: Inhibition of HDAC in human HL60 cells assessed as increase in histone H3 acetylation at 10 and 100 uM after 24 hrs by Western blotting method. The format is cell-based. As to conditions: HL-60.
For series [14], the target named is T1, Ribonucleotide reductase (Homo sapiens). Kind of series: Inhibition of ribonucleotide reductase in human HL60 cells assessed as intracellular dNTP pools level at 0.3 mM after 1 hr by HPLC method. The format is cell-based. The settings on record: HL-60.
The target is the same in series [15]. In words: Inhibition of human recombinant ribonucleotide reductase at 1.2 mM in presence of dGTP. The format is protein-complex assay.
Series [16] shares this target. In words: Inhibition of human recombinant ribonucleotide reductase at 1.2 mM in presence of 1 mM ATP. The format is protein-complex assay.
Series [17] has as its system HL-60. In words: Induction of cell cycle arrest in human HL60 cells assessed as accumulation at S phase at 100 uM after 24 hrs by propidium iodide staining based flow cytometry (reference value: 54%). The format is functional.
For series [18], the system named is HL-60. In words: Induction of cell cycle arrest in human HL60 cells assessed as accumulation at G2M phase at 100 uM after 24 hrs by propidium iodide staining based flow cytometry (reference value: 12%). In kind it is functional.

Regarding `CCCC(CCC)C(=O)O[C@H]1[C@H](n2cnc3c(N)ncnc32)O[C@H](CO)[C@@]1(C)O`, the AC50 result with HL-60 [1] is listed as “Not Active”. For the same compound, the inhibition entry in series [2] and in series [9] was “Active” each time. Moreover, the IC50 was over 1000 µM in the series with HT-29; over 1000 µM in the series with MCF7; over 1000 µM in series [3]; 650 µM in series [6]; 500 µM in the series on K562; 912 µM in the series on HuT78. The IC50 in the series on HeLa was over 1000 µM. The half-life in [4] and in series [10] was over 72 h each time. Besides, the Activity with HL-60 [5] was 51%; with HL-60 [7], 40%; with HL-60 [8], 9%.

On to `CCCC(CCC)C(=O)OC[C@H]1O[C@@H](n2cnc3c(N)ncnc32)[C@H](O)[C@]1(C)O`, for which the AC50 result in the series on HL-60 [1] was “Not Active”. Further, the inhibition entry in [2], in [14] and in series [16] was “Active” in each case. Also, the IC50 in the series with HT-29 is over 200 µM; with MCF7, over 200 µM; in series [3], over 200 µM; in series [6] it was 67.1 µM; in the series on K562 it was 200 µM; in the series on HuT78, 142 µM. Also, in the series with HeLa, the IC50 was over 200 µM. For the same compound, the Activity in the series with HL-60 [11] amounted to 42%; with HL-60 [17], 44%; in the series with HL-60 [18], 14%. The Ki at Ribonucleotide reductase turned out to be 400 µM. Moreover, the inhibition result in series [12], in [13] and in [15] was “inactive” throughout. Also, the half-life in series [4] and in [10] was over 72 h in each case.
